Data reported in article PMC10743905, “Design, Synthesis, and In Vitro and In Vivo Bioactivity Studies of Hydrazide–Hydrazones of 2,4-Dihydroxybenzoic Acid” (International Journal of Molecular Sciences, 2023).
Converted amounts (≈) assume the structure as drawn.

Assays:
[1] = system: Micrococcus luteus ATCC 10240; test: Broth microdilution MIC/MBC; assay type: cell-based; settings: for MBC: ATCC10240; for MIC: ATCC10240, read-out: MIC
From the text: (§1) In vitro antimicrobial activity assays - Methodology
(§2) The examined compounds 1 - 24 were screened in vitro for antibacterial and antifungal activities using the broth microdilution method according to procedure reported earlier by our research group and European Committee on Antimicrobial Susceptibility Testing (EUCAST) and Clinical and Laboratory Standards Institute (CLSI) guidelines against a panel of reference and clinical or saprophytic strains of microorganisms, in-cluding Gram-positive bacteria, Staphylococcus aureus ATCC 43300 (Methicillin Resistant S. aureus – MRSA), Staphylococcus aureus ATCC 29213 (Methicillin Susceptible S. aureus – MSSA), Staphylococcus epidermidis ATCC 12228, Enterococcus faecalis ATCC 29212, Micro-coccus luteus ATCC 10240, Bacillus subtilis ATCC 6633 and Bacillus cereus ATCC 10876), Gram-negative bacteria (Bordetella bronchiseptica ATCC 4617, Escherichia coli ATCC 25922, Klebsiella pneumoniae ATCC 13883, Proteus mirabilis ATCC 12453, Salmonella typhimurium ATCC 14028 and Pseudomonas aeruginosa ATCC 9027) and fungi belonging to yeasts (Can-dida albicans ATCC 10231, Candida albicans ATCC 2091, Candida parapsilosis ATCC 22019, Candida glabrata ATCC 90030 and Candida krusei ATCC 14243). The microorganisms be-longing to ATCC came from American Type Culture Collection, routinely used for the evaluation of antimicrobials. […]
(§3) Samples containing examined compounds were dissolved in dimethyl sulfoxide (DMSO). […]
(§4) Subsequently, the MIC (Minimal Inhibitory Concentration) of the compounds was ex-amined by the microdilution broth method, using their two-fold dilutions in Mueller- […]
(§5) Hinton broth or (for bacteria) and RPMI 1640 broth with MOPS (for fungi) prepared in 96-well polystyrene plates. Final concentrations of the compounds ranged from 1000 to 0.488 µg/ml. Microbial suspensions were prepared in 0.85% NaCl with an optical density of 0.5 McFarland standard. Next each bacterial or fungal suspension was added per each well containing broth and various concentrations of the examined compounds. After incuba-

[2] = system: Proteus mirabilis ATCC 12453; test: Broth microdilution MIC/MBC; assay type: cell-based; settings: ATCC12453
From the text: as §1, §2, §3, §4, §5

[3] = system: Pseudomonas aeruginosa ATCC 9027; test: Broth microdilution MIC/MBC; assay type: cell-based; settings: ATCC9027
From the text: as §1, §2, §3, §4, §5

[4] = system: Salmonella typhimurium ATCC 14028; test: Broth microdilution MIC/MBC; assay type: cell-based; settings: Salmonella enterica
From the text: as §1, §2, §3, §4, §5

[5] = system: Staphylococcus aureus ATCC 29213; test: Broth microdilution MIC/MBC; assay type: cell-based; settings: for MBC / MIC: ATCC29213
From the text: as §1, §2, §3, §4, §5

[6] = system: Staphylococcus aureus ATCC 43300; test: Broth microdilution MIC/MBC; assay type: cell-based; settings: Staphylococcus aureus ATCC 43300 (MRSA)
From the text: as §1, §2, §3, §4, §5

[7] = system: Staphylococcus epidermidis ATCC 12228; test: Broth microdilution MIC/MBC; assay type: cell-based; settings: for MBC: ATCC12228; for MIC: ATCC12228, read-out: MIC
From the text: as §1, §2, §3, §4, §5

[8] = system: Bacillus subtilis ATCC 6633; test: Broth microdilution MIC/MBC; assay type: cell-based; settings: for MBC: ATCC6633; for MIC: ATCC6633, read-out: MIC
From the text: Detailed procedures are presented in the Supplementary Materials. […]
as §1
as §2, with “antimicrobials. All the used microbial cultures were first subcultured on nu-trient agar or Sabouraud agar at 35°C for 18-24 h or 30°C for 24-48 h for bacteria and fungi,” for “antimicrobials.”
(§6) The surface of Mueller-Hinton agar (for bacteria) and RPMI 1640 with MOPS (for fungi) were inoculated with the suspensions of bacterial or fungal species. Microbial suspensions were prepared in sterile saline with an optical density of McFarland standard scale 0.5.
(§7) Samples containing examined compounds were dissolved in dimethyl sulfoxide (DMSO).
(§8) Furthermore, bacterial and fungal suspensions were put onto Petri dishes with solid me-dia containing 2 mg/mL of the tested compounds followed incubation at 37°C for 24h and 30°C for 48h for bacteria and fungi, respectively. The inhibition of microbial growth was judged by comparison with a control culture prepared without any sample tested. Ciprof-loxacin, vancomycin, nitrofurantoin, cefuroxime, ampicillin or nystatin (Sigma) were used as a reference antibacterial or antifungal compounds, respectively.
as §4, §5

[9] = system: Bacillus cereus ATCC 10876; test: Broth microdilution MIC/MBC; assay type: cell-based; settings: for MBC: ATCC10876; for MIC: ATCC10876, read-out: MIC
From the text: as §1
as §2, with “antimicrobials. All the used microbial cultures were first subcultured on nu-trient agar or Sabouraud agar at 35°C for 18-24 h or 30°C for 24-48 h for bacteria and fungi,” for “antimicrobials.”
as §6, §7, §8, §4, §5

[10] = system: Bordetella bronchiseptica ATCC 4617; test: Broth microdilution MIC/MBC; assay type: cell-based; settings: ATCC4617
From the text: as §1
as §2, with “antimicrobials. All the used microbial cultures were first subcultured on nu-trient agar or Sabouraud agar at 35°C for 18-24 h or 30°C for 24-48 h for bacteria and fungi,” for “antimicrobials.”
as §6, §7, §8, §4, §5

[11] = system: Enterococcus faecalis ATCC 29212; test: Broth microdilution MIC/MBC; assay type: cell-based; settings: for MBC: ATCC29212, read-out: MBC; for MIC: ATCC29212, read-out: MIC
From the text: as §1
as §2, with “antimicrobials. All the used microbial cultures were first subcultured on nu-trient agar or Sabouraud agar at 35°C for 18-24 h or 30°C for 24-48 h for bacteria and fungi,” for “antimicrobials.”
as §6, §7, §8, §4, §5

[12] = system: Escherichia coli ATCC 25922; test: Broth microdilution MIC/MBC; assay type: cell-based; settings: ATCC25922
From the text: as §1
as §2, with “antimicrobials. All the used microbial cultures were first subcultured on nu-trient agar or Sabouraud agar at 35°C for 18-24 h or 30°C for 24-48 h for bacteria and fungi,” for “antimicrobials.”
as §6, §7, §8, §4, §5

[13] = system: Klebsiella pneumoniae ATCC 13883; test: Broth microdilution MIC/MBC; assay type: cell-based; settings: ATCC13883
From the text: as §1
as §2, with “antimicrobials. All the used microbial cultures were first subcultured on nu-trient agar or Sabouraud agar at 35°C for 18-24 h or 30°C for 24-48 h for bacteria and fungi,” for “antimicrobials.”
as §6, §7, §8, §4, §5

[14] = system: Candida albicans ATCC 10231; test: Broth microdilution MIC/MFC; assay type: cell-based; settings: ATCC10231, read-out: MIC
From the text: as §1
as §2, with “antimicrobials. All the used microbial cultures were first subcultured on nu-trient agar or Sabouraud agar at 35°C for 18-24 h or 30°C for 24-48 h for bacteria and fungi,” for “antimicrobials.”
as §6, §7, §8, §4, §5

[15] = system: Candida albicans ATCC 2091; test: Broth microdilution MIC/MFC; assay type: cell-based; settings: ATCC2091, read-out: MIC
From the text: as §1
as §2, with “antimicrobials. All the used microbial cultures were first subcultured on nu-trient agar or Sabouraud agar at 35°C for 18-24 h or 30°C for 24-48 h for bacteria and fungi,” for “antimicrobials.”
as §6, §7, §8, §4, §5

[16] = system: Candida glabrata ATCC 90030; test: Broth microdilution MIC/MFC; assay type: cell-based; settings: Nakaseomyces glabratus, ATCC90030, read-out: MIC
From the text: as §1
as §2, with “antimicrobials. All the used microbial cultures were first subcultured on nu-trient agar or Sabouraud agar at 35°C for 18-24 h or 30°C for 24-48 h for bacteria and fungi,” for “antimicrobials.”
as §6, §7, §8, §4, §5

[17] = system: Candida krusei ATCC 14243; test: Broth microdilution MIC/MFC; assay type: cell-based; settings: Pichia kudriavzevii, ATCC14243, read-out: MIC
From the text: as §1
as §2, with “antimicrobials. All the used microbial cultures were first subcultured on nu-trient agar or Sabouraud agar at 35°C for 18-24 h or 30°C for 24-48 h for bacteria and fungi,” for “antimicrobials.”
as §6, §7, §8, §4, §5

[18] = system: Candida parapsilosis ATCC 22019; test: Broth microdilution MIC/MFC; assay type: cell-based; settings: Lodderomyces parapsilosis, ATCC22019, read-out: MIC
From the text: as §1
as §2, with “antimicrobials. All the used microbial cultures were first subcultured on nu-trient agar or Sabouraud agar at 35°C for 18-24 h or 30°C for 24-48 h for bacteria and fungi,” for “antimicrobials.”
as §6, §7, §8, §4, §5

[19] = system: reference Gram-positive bacteria; test: Broth microdilution, summary over the Gram-positive panel; assay type: cell-based; settings: read-out: MIC
From the text: as §1, §2, §3, §4, §5

Compound `COc1ccc(/C=N/NC(=O)c2ccc(O)cc2O)cc1Br` [Compound 10, N-[(3-bromo-4-methoxyphenyl)methylidene]-2,4-dihydroxybenzohydrazide] has an MBC/MIC [1] greater than 4, an MBC [1] greater than 1000 µg/mL and an MIC [1] of 250 µg/mL (≈ 685 µM). The MIC [2] was greater than 1000 µg/mL, the MIC [3] was greater than 1000 µg/mL and the MIC [4] was greater than 1000 µg/mL. The MBC/MIC [5] was 16, the MBC [5] was 250 µg/mL (≈ 685 µM) and the MIC [5] was 15.6 µg/mL (≈ 42.8 µM). The MBC [6] was 500 µg/mL (≈ 1370 µM), the MBC/MIC [6] was 16 and the MIC [6] was 31.2 µg/mL (≈ 85.6 µM). It also gave an MBC/MIC [7] greater than 1, an MBC [7] of 1000 µg/mL (≈ 2740 µM) and an MIC [7] of 1000 µg/mL (≈ 2740 µM). It also gave an MBC/MIC [8] greater than 4, an MBC [8] greater than 1000 µg/mL and an MIC [8] of 250 µg/mL (≈ 685 µM). For the same compound, the MBC/MIC [9] was 2, the MBC [9] was 250 µg/mL (≈ 685 µM) and the MIC [9] was 125 µg/mL (≈ 342 µM). For the same compound, the MIC [10] was greater than 1000 µg/mL, the MBC/MIC [11] was 4 and the MBC [11] was 1000 µg/mL (≈ 2740 µM). It also gave an MIC [11] of 250 µg/mL (≈ 685 µM), an MIC [12] greater than 1000 µg/mL and an MIC [13] greater than 1000 µg/mL. It also gave an MIC [14] greater than 1000 µg/mL, an MIC [15] greater than 1000 µg/mL and an MIC [16] greater than 1000 µg/mL. The MIC [17] was greater than 1000 µg/mL, the MIC [18] was greater than 1000 µg/mL and the MIC [19] was 15.6 to 1000 µg/mL (≈ 42.8 to 2740 µM). For the same compound, the melting point was 260 °C.

`O=C(N/N=C/c1ccc(O)c(Br)c1)c1ccc(O)cc1O` [Compound 11, N-[(3-bromo-4-hydroxyphenyl)methylidene]-2,4-dihydroxybenzohydrazide] showed an MBC/MIC [1] greater than 8, an MBC [1] greater than 1000 µg/mL and an MIC [1] of 125 µg/mL (≈ 356 µM). It also gave an MIC [2] greater than 1000 µg/mL, an MIC [3] greater than 1000 µg/mL and an MIC [4] greater than 1000 µg/mL. The MBC/MIC [5] was greater than 4, the MBC [5] was greater than 1000 µg/mL and the MIC [5] was 250 µg/mL (≈ 712 µM). It also gave an MBC [6] of 1000 µg/mL (≈ 2850 µM), an MBC/MIC [6] of 2 and an MIC [6] of 500 µg/mL (≈ 1420 µM). For the same compound, the MBC/MIC [7] was 2, the MBC [7] was 1000 µg/mL (≈ 2850 µM) and the MIC [7] was 500 µg/mL (≈ 1420 µM). The MBC/MIC [8] was greater than 2, the MBC [8] was greater than 1000 µg/mL and the MIC [8] was 500 µg/mL (≈ 1420 µM). For the same compound, the MBC/MIC [9] was greater than 4, the MBC [9] was greater than 1000 µg/mL and the MIC [9] was 250 µg/mL (≈ 712 µM). For the same compound, the MIC [10] was greater than 1000 µg/mL, the MBC/MIC [11] was greater than 2 and the MBC [11] was greater than 1000 µg/mL. For the same compound, the MIC [11] was 500 µg/mL (≈ 1420 µM), the MIC [12] was greater than 1000 µg/mL and the MIC [13] was greater than 1000 µg/mL. For the same compound, the MIC [14] was greater than 1000 µg/mL, the MIC [15] was greater than 1000 µg/mL and the MIC [16] was greater than 1000 µg/mL. It also gave an MIC [17] greater than 1000 µg/mL, an MIC [18] greater than 1000 µg/mL and an MIC [19] of 15.6 to 1000 µg/mL (≈ 44.5 to 2850 µM). It also gave a melting point of 232 °C.
